Measured values taken from patent US9504754B2, “Curcuminoid complexes with enhanced stability, solubility and/or bioavailability” (South Dakota Board of Regents, priority 2013, dated 2016).

Tests used:
[1] = without any solubility enhancement techniques; cited from earlier work
[2] = Aqueous solubility of curcumin at different pH (FIG. 6A/6B); type: physicochemical

COc1cc(/C=C/C(=O)CC(=O)/C=C/c2ccc(O)c(OC)c2)ccc1O [free curcumin, (1E,6E)-1,7-bis(4-hydroxy-3-methoxyphenyl)-1,6-heptadiene-3,5-dione]
solubility in water [1]: less than 1 μg/ml
aqueous solubility of curcumin (colour of solution) ([2]; pH 1.2): absence of soluble curcumin
aqueous solubility of curcumin (colour of solution) ([2]; pH 4.5): absence of soluble curcumin
aqueous solubility of curcumin (colour of solution) ([2]; pH 7.0): absence of soluble curcumin
aqueous solubility of curcumin (colour of solution) ([2]; pH 7.4): absence of soluble curcumin
